Values quoted from earlier work, collected in patent US5830503A (Andrx Pharmaceuticals, Inc., priority 1996, dated 1998).

Details: as compared to intravenous administration; first pass effect

absolute bioavailability: about 40%
SMILES: COc1ccc([C@@H]2Sc3ccccc3N(CCN(C)C)C(=O)[C@@H]2OC(C)=O)cc1 [diltiazem]
